Experimental data reported in patent US20230381146A1, “SUBSTITUTED HETEROARYL COMPOUNDS AND USE THEREOF” (HELIOS HUAMING BIOPHARMA CO., LTD., priority 2020, published 2023).

Each compound was assayed against PAD4 (Homo sapiens, UniProt Q9UM07) (assay: PAD4 Inhibition Assay (citrulline formation from BAEE substrate)). Details: PAD4 75 nM, 60 minute preincubation at 37° C., 90 minutes.
Chain of PAD4 (Q9UM07 whole entry): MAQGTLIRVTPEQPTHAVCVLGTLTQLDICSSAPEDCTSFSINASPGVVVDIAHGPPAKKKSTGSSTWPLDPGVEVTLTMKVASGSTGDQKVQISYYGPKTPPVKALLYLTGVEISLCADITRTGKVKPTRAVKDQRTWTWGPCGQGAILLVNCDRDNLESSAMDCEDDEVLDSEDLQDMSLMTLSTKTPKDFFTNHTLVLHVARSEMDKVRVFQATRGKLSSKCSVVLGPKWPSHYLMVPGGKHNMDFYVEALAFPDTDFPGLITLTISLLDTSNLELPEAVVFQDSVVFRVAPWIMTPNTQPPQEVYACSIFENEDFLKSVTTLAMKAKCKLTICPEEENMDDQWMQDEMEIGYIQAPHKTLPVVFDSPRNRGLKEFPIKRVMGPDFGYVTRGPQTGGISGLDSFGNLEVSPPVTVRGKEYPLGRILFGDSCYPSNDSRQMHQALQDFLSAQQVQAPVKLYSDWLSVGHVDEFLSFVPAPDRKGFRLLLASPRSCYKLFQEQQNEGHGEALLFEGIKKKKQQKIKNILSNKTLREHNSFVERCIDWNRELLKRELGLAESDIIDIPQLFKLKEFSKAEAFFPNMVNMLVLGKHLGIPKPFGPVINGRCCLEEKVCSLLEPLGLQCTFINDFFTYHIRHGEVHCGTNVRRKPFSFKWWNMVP
Assay type: biochemical
Experimental: PAD4 was diluted to 75 nM in Assay Buffer (50 mM Tris-HCl, 2 mM CaCl2), 2 mM DTT, 1 mM PMSF in H2O) and added to wells with various concentrations of compound or DMSO vehicle in Eppendorf tubes (final volume was 100 μL). Following a 60 minute preincubation at 37° C., the reaction was initiated by the addition of 10 μL substrate (22 mM BAEE in H2O) at 37° C. The reaction was stopped after 90 minutes by the addition of 25 μL HClO4 (5 M), 125 μL Reagent A (10 g/L diacetyl monoxime and 15 g/L NaCl in H2O) and 250 μL Reagent B (10 mg/mL antipyrine and 1.0 mg/mL FeCl3 diluted in detection buffer containing 25% H2SO4, 25% H3PO4 and 50% H2O) in sequence. This assay was quenched in an ice-bath for 5 minutes after boiling for 30 minutes. The citrulline formation was measured in fluorescence (κ=465 nm) on microplate reader and the IC50 was calculated by GraphPad Prism.
For `N=C(CF)NCCC[C@H](NC(=O)c1cccc(-c2cccc(Cl)c2)c1)c1ncc(-c2ccccc2)o1` [EX-1, (S)-3′-chloro-N-(4-(2-fluoroacetimidamido)-1-(5-phenyloxazol-2-yl)butyl)-[1,1′-biphenyl]-3-carboxamide], the IC50 was 200 to 500 nM.
In the case of `N=C(CCl)NCCC[C@H](NC(=O)c1cccc(-c2cccc(Cl)c2)c1)c1ncc(-c2ccccc2)o1` [EX-2, (S)-3′-chloro-N-(4-(2-chloroacetimidamido)-1-(5-phenyloxazol-2-yl)butyl)-[1,1′-biphenyl]-3-carboxamide], the IC50 is reported as > 500 nM.
`CN(C)c1ccc2cc(C(=O)N[C@@H](CCCNC(=N)CCl)c3ncc(-c4ccccc4)o3)ccc2c1` [EX-3, N-[(1S)-4-(2-chloroethanimidamido)-1-(5-phenyl-1,3-oxazol-2-yl)butyl]-6-(dimethylamino)naphthalene-2-carboxamide] was tested, and the IC50 was 200 to 500 nM.
In the case of `CN(C)c1ccc2cc(C(=O)N[C@@H](CCCNC(=N)CF)c3ncc(-c4ccccc4)o3)ccc2c1` [EX-4, (S)-6-(Dimethylamino)-N-(4-(2-fluoroacetimidamido)-1-(5-phenyloxazol-2-yl)butyl)-2-naphthamide], the IC50 is reported as 200 to 500 nM.
Compound `COc1cccc(-c2cccc(C(=O)N[C@@H](CCCNC(=N)CF)c3ncc(-c4ccccc4)o3)c2)c1` [EX-5, (S)—N-(4-(2-fluoroacetimidamido)-1-(5-phenyloxazol-2-yl)butyl)-3′-methoxy-[1,1′-biphenyl]-3-carboxamide] has an IC50 of 200 to 500 nM.
With `COc1ccc(-c2cccc(C(=O)N[C@@H](CCCNC(=N)CF)c3ncc(-c4ccccc4)o3)c2)cc1` [EX-6, (S)—N-(4-(2-fluoroacetimidamido)-1-(5-phenyloxazol-2-yl)butyl)-4′-methoxy-[1,1′-biphenyl]-3-carboxamide] the IC50 was 200 to 500 nM.
In the case of `CN(C)c1ccc2cc(C(=O)N[C@@H](CCCNC(=N)CF)c3ncc(-c4ccc(Cl)cc4)o3)ccc2c1` [EX-7, (S)—N-(1-(5-(4-chlorophenyl)oxazol-2-yl)-4-(2-fluoroacetimidamido)butyl)-6-(dimethylamino)-2-naphthamide], the IC50 is reported as > 500 nM.
In the case of `CN(C)c1ccc2cc(C(=O)N[C@@H](CCCNC(=N)CF)c3ncc(-c4cccc(F)c4)o3)ccc2c1` [EX-8, (S)-6-(Dimethylamino)-N-(4-(2-fluoroacetimidamido)-1-(5-(3-fluorophenyl)oxazol-2-yl)butyl)-2-naphthamide], the IC50 is reported as > 500 nM.
With `N=C(CF)NCCC[C@H](NC(=O)c1cccc(-c2ccc(CO)cc2)c1)c1ncc(-c2ccc(Cl)cc2)o1` [EX-9, (S)—N-(1-(5-(4-chlorophenyl)oxazol-2-yl)-4-(2-fluoroacetimidamido)butyl)-4′-(hydroxymethyl)-[1,1′-biphenyl]-3-carboxamide] the IC50 was > 500 nM.
For `COc1cc2c(OC)cccc2cc1C(=O)N[C@@H](CCCNC(=N)CF)c1ncc(-c2ccccc2)o1` [EX-10], the IC50 was < 200 nM.
`COc1cc2c(OC)cccc2cc1C(=O)N[C@@H](CCCNC(=N)CF)c1ncc(C2CCCC2)o1` [EX-11, (S)-N-(1-(5-Cyclopentyloxazol-2-yl)-4-(2-fluoroacetimidamido)butyl)-3,5-dimethoxy-2-naphthamide] gave an IC50 of 200 to 500 nM.
With `COc1cc2c(OC)cccc2cc1C(=O)N[C@@H](CCCNC(=N)CF)c1ncc(C)o1` [EX-12, (S)-N-(4-(2-fluoroacetimidamido)-1-(5-methyloxazol-2-yl)butyl)-3,5-dimethoxy-2-naphthamide] the IC50 was > 500 nM.
For `COc1cc2c(OC)cccc2cc1C(=O)N[C@@H](CCCNC(=N)CF)c1ncc(-c2cccc(Cl)c2)o1` [EX-13, (S)-N-(1-(5-(3-Chlorophenyl)oxazol-2-yl)-4-(2-fluoroacetimidamido)butyl)-3,5-dimethoxy-2-naphthamide], the IC50 was 200 to 500 nM.
Compound `COc1cc2c(OC)cccc2cc1C(=O)N[C@@H](CCCNC(=N)CF)c1ncc(-c2cccc(F)c2)o1` [EX-14, (S)-N-(4-(2-Fluoroacetimidamido)-1-(5-(3-fluorophenyl)oxazol-2-yl)butyl)-3,5-dimethoxy-2-naphthamide] has an IC50 of 200 to 500 nM.
With `N=C(CF)NCCC[C@H](NC(=O)c1cccc(-c2cc(Cl)ccn2)c1)c1ncc(-c2ccccc2)o1` [EX-15] the IC50 was > 500 nM.
In the case of `N=C(CF)NCCC[C@H](NC(=O)c1cccc(N2CCCC2)c1)c1ncc(-c2ccccc2)o1` [EX-16, (S)—N-(4-(2-fluoroacetimidamido)-1-(5-phenyloxazol-2-yl)butyl)-3-(pyrrolidin-1-yl)benzamide], the IC50 is reported as 200 to 500 nM.
For `COc1ccc(N2CCOCC2)cc1C(=O)N[C@@H](CCCNC(=N)CF)c1ncc(-c2ccccc2)o1` [EX-17, (S)-N-(4-(2-Fluoroacetimidamido)-1-(5-phenyloxazol-2-yl)butyl)-2-methoxy-5-morpholinobenzamide], the IC50 was > 500 nM.
`COc1ccc(N2CCN(C)CC2)cc1C(=O)N[C@@H](CCCNC(=N)CF)c1ncc(-c2ccccc2)o1` [EX-18, (S)-N-(4-(2-Fluoroacetimidamido)-1-(5-phenyloxazol-2-yl)butyl)-2-methoxy-5-(4-methylpiperazin-1-yl)benzamide] gave an IC50 of 200 to 500 nM.
`COc1cccc(OC)c1C(=O)N[C@@H](CCCNC(=N)CF)c1ncc(-c2ccc(Cl)cc2)o1` [EX-19] gave an IC50 of 200 to 500 nM.
With `COc1ccc(-c2cnc([C@H](CCCNC(=N)CF)NC(=O)c3c(OC)cccc3OC)o2)cc1` [EX-20, (S)-N-(4-(2-Fluoroacetimidamido)-1-(5-(4-methoxyphenyl)oxazol-2-yl)butyl)-2,6-dimethoxybenzamide] the IC50 was 200 to 500 nM.
`COc1cccc(OC)c1C(=O)N[C@@H](CCCNC(=N)CF)c1ncc(-c2ccccc2Cl)o1` [EX-21, (S)-N-(1-(5-(2-Chlorophenyl)oxazol-2-yl)-4-(2-fluoroacetimidamido)butyl)-2,6-dimethoxybenzamide] was tested, and the IC50 was < 200 nM.
Work on `COc1cccc(Cl)c1C(=O)N[C@@H](CCCNC(=N)CF)c1ncc(-c2ccc(Cl)cc2)o1` [EX-22, (S)-2-chloro-N-(1-(5-(4-chlorophenyl)oxazol-2-yl)-4-(2-fluoroacetimidamido)butyl)-6-methoxybenzamide] yielded an IC50 of 200 to 500 nM.
Compound `CN(C)c1cccc(Cl)c1C(=O)N[C@@H](CCCNC(=N)CF)c1ncc(-c2ccc(Cl)cc2)o1` [EX-23, (S)-2-Chloro-N-(1-(5-(4-chlorophenyl)oxazol-2-yl)-4-(2-fluoroacetimidamido)butyl)-6-(dimethylamino)benzamide] has an IC50 of 200 to 500 nM.
With `COc1cccc(Cl)c1C(=O)N[C@@H](CCCNC(=N)CF)c1ncc(-c2ccc(F)cc2)o1` [EX-24, (S)-2-Chloro-N-(4-(2-fluoroacetimidamido)-1-(5-(4-fluorophenyl)oxazol-2-yl)butyl)-6-methoxybenzamide] the IC50 was < 200 nM.
In the case of `COc1cccc(Cl)c1C(=O)N[C@@H](CCCNC(=N)CF)c1ncc(-c2cc(F)cc(F)c2)o1` [EX-25, (S)-2-Chloro-N-(1-(5-(3,5-difluorophenyl)oxazol-2-yl)-4-(2-fluoroacetimidamido)butyl)-6-methoxybenzamide], the IC50 is reported as 200 to 500 nM.
For `COc1cccc(Cl)c1C(=O)N[C@@H](CCCNC(=N)CF)c1ncc(-c2ccccc2Cl)o1` [EX-26, (S)-2-Chloro-N-(1-(5-(2-chlorophenyl)oxazol-2-yl)-4-(2-fluoroacetimidamido)butyl)-6-methoxybenzamide], the IC50 was 200 to 500 nM.
For `COc1cccc(Cl)c1C(=O)N[C@@H](CCCNC(=N)CF)c1ncc(-c2cccc(C(F)(F)F)c2)o1` [EX-27, (S)-2-Chloro-N-(4-(2-fluoroacetimidamido)-1-(5-(3-(trifluoromethyl)phenyl)oxazol-2-yl)butyl)-6-methoxybenzamide], the IC50 was > 500 nM.
`COc1cccc(Cl)c1C(=O)N[C@@H](CCCNC(=N)CF)c1ncc(-c2cccc(C)c2)o1` [EX-28, (S)-2-Chloro-N-(4-(2-fluoroacetimidamido)-1-(5-(m-tolyl)oxazol-2-yl)butyl)-6-methoxybenzamide] showed an IC50 of 200 to 500 nM.
`COc1cccc(Cl)c1C(=O)N[C@@H](CCCNC(=N)CF)c1ncc(-c2ccc(N(C)C)cc2)o1` [EX-29, (S)-2-Chloro-N-(1-(5-(4-(dimethylamino)phenyl)oxazol-2-yl)-4-(2-fluoroacetimidamido)butyl)-6-methoxybenzamide] was tested, and the IC50 was > 500 nM.
`N=C(CF)NCCC[C@H](NC(=O)c1c(Cl)cccc1Cl)c1ncc(-c2ccc(F)cc2)o1` [EX-30, (S)-2,6-Dichloro-N-(4-(2-fluoroacetimidamido)-1-(5-(4-fluorophenyl)oxazol-2-yl)butyl)benzamide] was tested, and the IC50 was > 500 nM.
Work on `COc1cccc(F)c1C(=O)N[C@@H](CCCNC(=N)CF)c1ncc(-c2cccc(C)c2)o1` [EX-31, (S)-2-Fluoro-N-(4-(2-fluoroacetimidamido)-1-(5-(m-tolyl)oxazol-2-yl)butyl)-6-methoxybenzamide] yielded an IC50 of 200 to 500 nM.
In the case of `Cc1cccc(-c2cnc([C@H](CCCNC(=N)CF)NC(=O)c3c(F)cccc3F)o2)c1` [EX-32, (S)-2,6-Difluoro-N-(4-(2-fluoroacetimidamido)-1-(5-(m-tolyl)oxazol-2-yl)butyl)benzamide], the IC50 is reported as 200 to 500 nM.
`COc1cccc(Cl)c1C(=O)N[C@@H](CCCNC(=N)CF)c1ncc(-c2cccc(Cl)c2)o1` [EX-33, (S)-2-Chloro-N-(1-(5-(3-chlorophenyl)oxazol-2-yl)-4-(2-fluoroacetimidamido)butyl)-6-methoxybenzamide] showed an IC50 of 200 to 500 nM.
Work on `N=C(CF)NCCC[C@H](NC(=O)c1c(F)cccc1Cl)c1ncc(-c2cccc(Cl)c2)o1` [EX-35, (S)-2-Chloro-N-(1-(5-(3-chlorophenyl)oxazol-2-yl)-4-(2-fluoroacetimidamido)butyl)-6-fluorobenzamide] yielded an IC50 of 200 to 500 nM.
In the case of `COc1cc2ccccc2cc1C(=O)N[C@@H](CCCNC(=N)CF)c1ncc(-c2ccccc2)o1` [EX-36, (S)—N-(4-(2-fluoroacetimidamido)-1-(5-phenyloxazol-2-yl)butyl)-3-methoxy-2-naphthamide], the IC50 is reported as < 200 nM.
